How the values were obtained:
[1] = tested on: JIMT-1, MDA-MB-436, MDA-MB-157 and BT-474 T-DM1R cell lines; assay: Cell viability (SRB) of breast cancer cell lines, three TACC3 inhibitors compared; format: cell-based, human; settings: all cell lines tested, 72 hours
Protocol: JIMT-1, MDA-MB-436, MDA-MB-157 and BT-474 T-DM1R cell lines were tested with respect to their response to these three drugs. […] Although higher KHS101 doses was included, which were used by others (Campo & Breuer, 2018), an induction of these markers was only observed at very high doses.

JIMT-1 cells [2] = assay: Colony formation assay; format: cell-based, human; settings: 12 days
Protocol: For monolayer culture, single-cell suspensions of JIMT-1 cells (3×10^3 cells/well) were plated in a 12-well plate. […] In order to test the colony formation capacity of MCF-12A cells during TACC3 overexpression, MCF-12A cells (2×10^5) were seeded into 6-well plates and TACC3 trasnfection was performed next day. 48 h following transfection, cells were counted and 1×10^3 cells/well were plated into 12-well plates. For both experimental setups, the media were refreshed every 4 days, and cells were incubated for 12 days. Cells were then fixed with 2% paraformaldehyde for 15 min and stained with 1% crystal violet (Merck, Darmstadt, Germany) for 15 min at RT. Surviving colonies (composed of at least 50 cells) were counted with ImageJ software (NIH).

JIMT-1 cells [3] = assay: Annexin V/PI staining; format: cell-based, human; settings: 500 nM, 72 h; vehicle 4.1%
RT112 and RT4 = assay: Cell viability (SRB) of FGFR3-TACC3 fusion expressing cell lines; format: cell-based, human; settings: both models RT112 and RT4, 3 days
Protocol: KHS101 (Sigma Aldrich) and SPL-B (Axon MedChem, VA, USA) were dissolved in 100% DMSO to yield a stock concentration of 50 mM. Newly synthesized molecules were dissolved in 100% DMSO to yield a stock concentration of 10 mM. […] Cell viability was measured 72 hours after treatment with Sulforhodamine B (SRB, Sigma Aldrich) assay as recommended by the manufacturer.

NCI-60 human cell lines = assay: NCI-60 five-dose screen; format: cell-based
Protocol: Detailed screening methodology can be accessed from https://dtp.cancer.gov/discovery_development/nci-60/methodology.htm webpage. Briefly, 24 h after cell seeding into 96-well plates, cells were treated with 5-log M concentration range of the compound for 2 days. Cytotoxicity was assessed using SRB assay. The data presented in the FIG.s are the average values of both experiments.

MCF-12A = assay: Cell viability of normal breast epithelial cells; format: cell-based, human; settings: 5, 10 μM
Protocol: Next, the specificity of compound 5 towards cancer cell lines over normal cells were tested. […] To test the transforming potential of TACC3 and dependency of cells to TACC3 to survive, we performed a clonogenic growth assay in MCF-12A cells after overexpressing TACC3. […] To exclude the possibility that the differences we observed between cancer and normal cells are due to the differences in the proliferation rates of these cells, we calculated their doubling times.

JIMT-1 xenografts = assay: JIMT-1 xenograft tumor growth in female nude mice; format: in vivo
EMT6 = settings: 25 mg/kg every day orally
Protocol: Murine triple negative breast cancer (TNBC) cell line, EMT6, which is a fast-growing and highly aggressive model (Yang, Yang et al. 2017), was injected into MFPs of syngeneic Balb/c mice.
Six-to-eight-week-old female athymic nude or Balb/c mice were housed with a temperature-controlled and 12-hour light/12-hour dark cycle environment. This study was carried out in accordance with Institutional Animal Care and Use Committee of Bilkent University and performed according to the institution's guidelines and animal research principles. For in vivo breast cancer tumor growth in nude mice, 4×10^6 JIMT-1 cells were prepared in 150 μl of 1:1 DMEM and Matrigel (Corning, N.Y., USA), v/v) and injected into the mammary fat pads (MFP) of female nude mice. Mouse weight and tumor volume were measure daily using calipers. Tumor volumes were calculated as length×width^2×0.5. Once the tumor volume had reached about 90-100 mm^3, xenografts were randomized into groups. […] Mice were sacrificed 20-30 days after initiation of the treatments, and the tumors were collected and stored for subsequent analyses. […] 1×10^6 EMT-6 cells were prepared in PBS and injected into MFPs of mice. […] Survival was calculated using a predefined tumor volume cut-off of 1500 mm^3.

[4] = Log D, octanol/sodium phosphate buffer; format: physicochemical; settings: octanol/sodium phosphate buffer (50 mM, pH 7.4); read-out: log D7.4
[5] = Kinetic solubility in sodium phosphate buffer; format: physicochemical; settings: pH 7.4, 25° C., 2 h
CYP2C9 = CYP2C9 (Homo sapiens, UniProt P11712); settings: read-out: IC50 CYP2C9; human liver microsomes
CYP2C9, sequence (P11712 whole entry): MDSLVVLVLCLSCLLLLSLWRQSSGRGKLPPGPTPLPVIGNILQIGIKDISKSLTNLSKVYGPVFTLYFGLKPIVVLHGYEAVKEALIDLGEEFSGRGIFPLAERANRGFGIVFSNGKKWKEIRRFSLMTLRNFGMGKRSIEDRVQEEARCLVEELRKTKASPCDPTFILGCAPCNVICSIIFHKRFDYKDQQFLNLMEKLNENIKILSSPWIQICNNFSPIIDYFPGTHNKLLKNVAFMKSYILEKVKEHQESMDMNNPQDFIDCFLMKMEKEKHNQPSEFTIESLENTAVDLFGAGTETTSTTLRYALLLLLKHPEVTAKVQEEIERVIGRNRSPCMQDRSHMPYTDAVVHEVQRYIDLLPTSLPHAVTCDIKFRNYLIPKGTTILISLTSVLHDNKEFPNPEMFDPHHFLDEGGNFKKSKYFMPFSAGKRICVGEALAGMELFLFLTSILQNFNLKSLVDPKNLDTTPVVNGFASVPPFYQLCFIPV

CYP2CD6 = CYP2CD6 (Homo sapiens, UniProt P10635); settings: read-out: IC50 CYP2CD6; human liver microsomes
CYP2CD6, sequence (P10635 whole entry): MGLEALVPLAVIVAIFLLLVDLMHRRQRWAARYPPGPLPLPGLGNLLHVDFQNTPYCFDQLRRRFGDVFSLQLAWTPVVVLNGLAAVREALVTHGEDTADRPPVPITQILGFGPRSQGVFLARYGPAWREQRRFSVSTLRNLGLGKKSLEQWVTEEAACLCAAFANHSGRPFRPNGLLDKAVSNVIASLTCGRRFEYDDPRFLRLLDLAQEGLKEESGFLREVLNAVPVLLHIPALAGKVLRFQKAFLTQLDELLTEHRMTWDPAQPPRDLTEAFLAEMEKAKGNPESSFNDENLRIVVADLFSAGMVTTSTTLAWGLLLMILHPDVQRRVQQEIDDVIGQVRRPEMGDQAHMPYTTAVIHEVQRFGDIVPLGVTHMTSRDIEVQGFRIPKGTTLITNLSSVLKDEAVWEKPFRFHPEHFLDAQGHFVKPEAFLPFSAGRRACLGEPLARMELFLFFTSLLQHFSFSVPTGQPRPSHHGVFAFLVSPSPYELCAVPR

TACC3 [6] = molecular target: T1, TACC3 (Homo sapiens, UniProt Q9Y6A5); assay: Isothermal titration calorimetry (ITC) of TACC3 into compound 5; format: binding; design: purchased Origene TP310754; settings: 25° C.
Protocol: (§1) DARTS is a label free-strategy to identify potential direct protein targets for small molecules and is based on stabilization and protection from proteolysis of the target protein upon binding to small molecules (Lomenick, Jung et al. 2011, Pai, Lomenick et al. 2015).
Titrations were carried out using Microcal 200 equipment (GE Healthcare, Austria) at 25° C. For each titration, 10 injections were made with 6 min spacing. The reference power was set at 2 μcal/sec, and the sample cell was continuously stirred at 500 rpm. In order to assess the binding efficiency between drug and protein, background data obtained by protein injected into buffer alone was subtracted from the experimental isotherms. The data was analyzed using Origin 7 Software provided along with the ITC200, and binding parameters such as association constant (Ka), number of binding sites (N) and enthalpy (ΔH) were calculated.

TACC3 [7] = molecular target: T1, TACC3; assay: Drug affinity responsive target stability (DARTS) with JIMT-1 cell protein extracts; format: binding; design: endogenous in cells; host or cells: JIMT-1; settings: 10 μM
Excerpt: as §1

[8] = 2 mg/kg (po. or i.v) or 5 mg/kg (po.) every two days for 30 days
[9] = 5 mg/kg oral every other day for 30 days

COc1ccc(-c2cc(Nc3ccnc(N4CCOCC4)n3)on2)cc1 [Compound 5]
IC50 values compared with KHS101 and SPL-B [1]: significantly lower IC50 values | average colony number compared with other two inhibitors at the same doses (JIMT-1 cells [2]): significantly lower | fraction of apoptotic cells (Annexin V/PI) (JIMT-1 cells [3]): 45.6% | IC50 value compared to SPL-B and KHS101 (RT112 and RT4): lowest IC50 value | share of NCI-60 cell lines with less than 1 μM GI50 value (NCI-60 human cell lines): ~90% | GI50 (NCI-60 human cell lines; Homo sapiens, read-out: 50% growth inhibition (GI50) value, almost all cell lines): < 1000 nM | growth inhibition of cells at high doses (MCF-12A): did not reach to 50% growth inhibition | body weight of mice (JIMT-1 xenografts; [8]): did not have any negative effect on the body weight | tumor growth rate compared with control group (JIMT-1 xenografts; [8]): decreased | body weight of mice (JIMT-1 xenografts; [9]): no major effect on the body weight | tumor growth as compared to SPL-B (JIMT-1 xenografts; [9]): significant reduction of tumor growth | mice weight (JIMT-1 xenografts; 25 mg/kg, po., 23 days): did not affect the mice weight | tumor growth compared to vehicle-treated mice (JIMT-1 xenografts; 25 mg/kg, po., 23 days): very significant reduction of tumor growth | tumor weights compared to vehicle group (JIMT-1 xenografts; 25 mg/kg, po., 23 days): significantly lower | tolerability (EMT6): well tolerated | tumor growth inhibition (EMT6): significant tumor growth inhibition | increased lifespan (EMT6; compared to vehicle): 57.1% | median survival (EMT6; vehicle 14 days): 22 days | logD [4]: 2.3 | solubility [5]: low solubility | IC50 (CYP2C9): 2630 nM | IC50 (CYP2CD6): 18500 nM | Kd (TACC3 [6]): 1.5 nM | N (number of binding sites) (TACC3 [6]): 0.704 | ΔH (TACC3 [6]): 49290 kcal/mol | ΔS (TACC3 [6]): 1.65E5 cal/mol/deg | stabilization of TACC3 protein in the presence of pronase (TACC3 [7]): TACC3 protein was stabilized

Reference: patent US20230027854A1, “ISOXAZOLE DERIVATIVES TARGETING TACC3 AS ANTICANCER AGENTS” (A2A Pharmaceuticals, inc., priority 2019, published 2023)
